# Data as given in ChEMBL document CHEMBL3879901, “Substituted isoquinolin-1(2H)-ones, and methods of use thereof” (2012).
# Activity calls are given as the source filed them. The calls are words filed in the database; no cut-off is given here.
# Experiments:
# Rattus norvegicus [1] = test: Antiarthritic activity in type 2 collagen-induced Lewis rat arthritis model assessed as reduction in ankle diameter at 10 to 60 mg/kg, po administered every 12 hrs for 16 days measured on day 9 of compound dosing to day 17 of post last dose relative to vehicle-treated control; type: functional, organism-based
# Rattus norvegicus [2] = test: Antiarthritic activity in type 2 collagen-induced Lewis rat arthritis model assessed as reduction in ankle inflammation at 60 mg/kg, po administered every 12 hrs for 16 days measured on day 17 of post last dose by toluidine blue staining-based assay; type: functional, organism-based
# Rattus norvegicus [3] = test: Antiarthritic activity in type 2 collagen-induced po dosed Lewis rat arthritis model assessed as reduction in knee pannus administered every 12 hrs for 16 days measured on day 17 of post last dose by toluidine blue staining-based assay; type: functional, organism-based
# Rattus norvegicus [4] = test: Antiarthritic activity in type 2 collagen-induced Lewis rat arthritis model assessed as reduction in serum anti-type 2 collagen levels at 60 mg/kg, po administered every 12 hrs for 16 days measured on day 17 of post last dose by ELISA relative to control; type: functional; parameters: scale not given: the % may be the effect or the level left
# Mus musculus [5] = test: Reduction of TNP-Ficoll-induced T cell independent B cell activation in BDA-1 mouse assessed as decrease in IgG3 levels in serum at 10 mg/kg, po bid administered for 7 days by ELISA relative to control; type: functional
# Rattus norvegicus [6] = test: Antiarthritic activity in complete freund's adjuvant-induced intrathecally dosed Lewis rat arthritis model assessed as reduction in paw volume administered on day 8 to 20 post arthritis induction measured every second day of compound dosing by water displacement plethysmometry; type: functional, organism-based
# Rattus norvegicus [7] = test: Antiarthritic activity in collagen-induced Lewis rat arthritis model assessed as reduction in ankle joint swelling administered for 6 days post arthritis induction measured every day during compound dosing and day 7 of post last dose in presence of mTOR inhibitor rapamycin; type: functional
# [8] = target: T1, Phosphatidylinositol 4,5-bisphosphate 3-kinase catalytic subunit delta isoform (Mus musculus) (UniProt O35904); test: Inhibition of PI3Kdelta in LPS or anti-CD40/IL4-stimulated mouse B cells assessed as decrease in IgE response in presence of mTOR inhibitor rapamycin; type: cell-based
# T1 sequence (whole entry): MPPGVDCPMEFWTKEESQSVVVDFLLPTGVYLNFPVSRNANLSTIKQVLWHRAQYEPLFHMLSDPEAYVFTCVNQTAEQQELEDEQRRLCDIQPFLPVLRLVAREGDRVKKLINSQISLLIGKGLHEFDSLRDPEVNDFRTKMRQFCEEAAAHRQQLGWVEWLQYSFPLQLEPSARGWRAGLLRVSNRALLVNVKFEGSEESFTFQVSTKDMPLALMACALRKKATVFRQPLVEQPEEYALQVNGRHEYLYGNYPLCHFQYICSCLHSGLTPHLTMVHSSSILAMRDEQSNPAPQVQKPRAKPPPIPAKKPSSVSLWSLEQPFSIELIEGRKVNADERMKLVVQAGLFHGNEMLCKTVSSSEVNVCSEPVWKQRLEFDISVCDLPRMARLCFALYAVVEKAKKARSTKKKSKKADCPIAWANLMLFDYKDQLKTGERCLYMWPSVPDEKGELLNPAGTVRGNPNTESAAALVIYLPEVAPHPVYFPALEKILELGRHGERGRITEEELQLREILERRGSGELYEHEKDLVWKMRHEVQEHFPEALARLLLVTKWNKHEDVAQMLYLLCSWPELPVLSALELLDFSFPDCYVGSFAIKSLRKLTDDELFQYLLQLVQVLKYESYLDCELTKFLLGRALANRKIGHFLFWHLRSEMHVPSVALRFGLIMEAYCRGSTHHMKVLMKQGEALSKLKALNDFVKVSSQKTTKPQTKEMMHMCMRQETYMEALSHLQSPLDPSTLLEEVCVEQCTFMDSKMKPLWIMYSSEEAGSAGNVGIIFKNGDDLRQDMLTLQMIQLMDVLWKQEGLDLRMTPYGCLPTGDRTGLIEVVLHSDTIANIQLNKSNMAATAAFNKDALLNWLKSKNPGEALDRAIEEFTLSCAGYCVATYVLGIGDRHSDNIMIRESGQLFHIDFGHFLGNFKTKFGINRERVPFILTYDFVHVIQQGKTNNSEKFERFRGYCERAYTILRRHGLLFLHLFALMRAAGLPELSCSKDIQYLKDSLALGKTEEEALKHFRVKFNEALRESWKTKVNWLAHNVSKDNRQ
# Mus musculus [9] = species: Mus musculus; test: Inhibition of TNP-Ficoll or TNP-KHL-stimulated IgG3 response in mouse in presence of mTOR inhibitor rapamycin by ELISA relative to vehicle-treated control; type: functional
structure (smiles),measurement,setting,value
CC(=O)Nc1nc2ccc(-c3nn(Cc4cc5cccc(C)c5c(=O)n4-c4ccccc4C)c4ncnc(N)c34)cc2s1,Activity,Rattus norvegicus [1],Active
same,Activity,Rattus norvegicus [2],Active
same,Activity,Rattus norvegicus [3],Dose-dependent effect
same,Activity,Rattus norvegicus [4],86%
same,fold change (FC),Mus musculus [5],1.4
same,Activity,Rattus norvegicus [6],Dose-dependent effect
same,Activity,Rattus norvegicus [7],Active
same,inhibition,[8],Active
same,inhibition,Mus musculus [9],Active
